Results as given in patent US20090304803A1, “Compositions and methods relating to target-specific photodynamic therapy” (The General Hospital Corporation, priority 2005, published 2009).

Columns and labels:
ErbB3 receptor = biological target: T1, ErbB3 receptor (Homo sapiens, UniProt P21860); experiment: ErbB3-specific aptamer localization in target and non-target cells, confocal microscopy; type: cell-based; details: 2 uM, 15 minutes at 4° C. then 20 minutes at 37° C.
T1 construct: endogenous in cells; host or cells: OVCAR3 (target); PA-1 (non-expressing control)
Procedure: Both ErbB3-expressing cells (OVCAR3) and non-expressing cells (PA-1) were incubated with the ErbB3-specific aptamer and the cells were imaged using a confocal microscope. OVCAR3 (target) and PA-1 (non-target) cells were incubated with 2 uM ErbB3 specific aptamer (tagged on the 5′ end with Fluoroscein) for 15 minutes at 4° C. and then for 20 minutes at 37° C. The cells were then imaged using a confocal laser scanning microscope with 488 nm excitation. The fluorescence was collected using a 515 nm long pass filter.

HER2 = details: cited from earlier work
MCF7 cells = details: cited from earlier work
[1] = water; cited from earlier work

T1 sequence (P21860 20-1342): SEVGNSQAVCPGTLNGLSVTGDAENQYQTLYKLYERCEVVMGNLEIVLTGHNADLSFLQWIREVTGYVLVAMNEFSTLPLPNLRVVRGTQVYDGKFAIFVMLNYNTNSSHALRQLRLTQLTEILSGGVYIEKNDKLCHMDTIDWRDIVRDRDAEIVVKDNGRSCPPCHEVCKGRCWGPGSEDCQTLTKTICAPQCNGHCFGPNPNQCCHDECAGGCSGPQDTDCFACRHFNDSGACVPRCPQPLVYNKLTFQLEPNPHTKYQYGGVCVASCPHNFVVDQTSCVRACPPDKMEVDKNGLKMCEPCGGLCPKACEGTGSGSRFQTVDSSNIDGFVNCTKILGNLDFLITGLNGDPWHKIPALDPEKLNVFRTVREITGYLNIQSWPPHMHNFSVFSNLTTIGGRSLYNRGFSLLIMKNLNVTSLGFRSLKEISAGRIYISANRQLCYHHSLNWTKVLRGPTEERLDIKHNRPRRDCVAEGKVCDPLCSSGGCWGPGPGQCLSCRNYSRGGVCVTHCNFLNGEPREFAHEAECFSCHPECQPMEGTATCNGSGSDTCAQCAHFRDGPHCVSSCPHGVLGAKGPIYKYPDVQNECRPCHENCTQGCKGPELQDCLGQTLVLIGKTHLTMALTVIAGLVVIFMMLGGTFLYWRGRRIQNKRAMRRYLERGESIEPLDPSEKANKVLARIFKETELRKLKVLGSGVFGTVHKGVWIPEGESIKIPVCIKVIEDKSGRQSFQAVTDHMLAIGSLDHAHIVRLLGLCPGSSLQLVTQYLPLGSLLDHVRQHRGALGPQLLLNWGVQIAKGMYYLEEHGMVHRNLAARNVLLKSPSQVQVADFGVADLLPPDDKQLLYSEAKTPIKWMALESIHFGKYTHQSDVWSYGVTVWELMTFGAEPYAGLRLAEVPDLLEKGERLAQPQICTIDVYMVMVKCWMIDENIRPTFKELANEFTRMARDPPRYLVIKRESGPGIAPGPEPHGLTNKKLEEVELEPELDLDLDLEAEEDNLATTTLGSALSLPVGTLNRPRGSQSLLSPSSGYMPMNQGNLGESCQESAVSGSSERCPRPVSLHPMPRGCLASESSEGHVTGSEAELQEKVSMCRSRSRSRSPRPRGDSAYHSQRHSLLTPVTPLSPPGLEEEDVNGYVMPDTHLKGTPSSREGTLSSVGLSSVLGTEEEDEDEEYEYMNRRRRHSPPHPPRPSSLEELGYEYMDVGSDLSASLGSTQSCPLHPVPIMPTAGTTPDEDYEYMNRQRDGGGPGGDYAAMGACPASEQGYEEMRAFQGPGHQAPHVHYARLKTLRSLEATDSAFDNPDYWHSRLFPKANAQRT

Substance	aptamer localization, OVCAR3 (target) versus PA-1 (non-target) (ErbB3 receptor)	hrg-dependent tyrosine phosphorylation of HER2 (HER2)	hrg-induced growth response of MCF7 cells (MCF7 cells)	solubility [1]
ErbB3-specific aptamer: aptamer that recognizes the ErbB3 receptor, sequence from Chen et al., PNAS 2003; labeled at 5′ end with Fluoroscein (DNA CAGCGAAAGUUGCGUAUGGGUCACAUCGCAGGCACAUGUCAUCUGGGCG; 5' fluorescein label, chemistry of the aptamer otherwise not given here)	localized specifically to the OVCAR3 cell line	inhibited	inhibited	–
chlorin e6 monoethylendiamine monamide [CMA]	–	–	–	soluble in water
